Data taken from patent US20070117842A1, “Polymorph of 4-[3-chloro-4-(cyclopropylaminocarbonyl)aminophenoxy]-7-methoxy-6- quinolinecarboxamide and a process for the preparation of the same” (priority 2003, published 2007).
pIC50: −log10 of the molar value.

Tests used:
c-Kit kinase [1] = target: T1, c-Kit kinase (Homo sapiens, UniProt P10721); assay: Effect on c-Kit kinase phosphorylation in H-526 tumor transplanted to nude mice (immunoblot); format: in vivo, Balb/c nu/nu mice; parameters: from tissue; host or cells: H-526 tumour xenograft extracted from Balb/c nu/nu mice; conditions: H-526 tumor in nude mice
Protocol: 0.1 ml of a H-526 cell suspension prepared at a concentration of 5.0×10^7 cells/ml, was transplanted to the subcutaneous parts of the right latus of 6-week female Balb/c nu/nu mice (purchased from Charles River Laboratories, Inc.). The animals were then divided into a vehicle control group (solvent-administered group) and a test substance (4-(3-chloro-4-(cyclopropylaminocarbonyl)aminophenoxy)-7-methoxy-6-quinolinecarboxamide) administered group at the point the tumor volume reached 300-1000 mm^3: the test substance was administered to the latter group. The extracted tumor was placed in a cell lysate buffer (50 mM HEPES (pH 7.4), 150 mM NaCl, 10% glycerol, 1% Triton X-100, 1.5 mm MgCl2, 1 mM EDTA, 100 mM NaF, 1 mM PMSF, 10 μg/ml aprotinin, 50 μg/ml leupeptin, 1 μg/ml peptatin A, 1 mM Na3VO4, 25 mM , βglycerophosphate, and phosphatase inhibitor cocktail 11) and homogenized. After centrifugation, the supernatant was protein quantified, and a 3×SDS sample loading buffer was added to prepare a cell lysate sample. Subsequently, the cell lysate was heat-treated at 94° c. for 10 minutes and cryopreserved at −20° c.
The cell lysate sample which was equivalent to 30 μg of protein was electrophoresed on a 4-20% gradient polyacrylamide gel (Daiichi Pure Chemicals Co., Ltd.). After electrophoresis, the sample was transferred to a PVDF membrane (Amersham Pharmacia Biotech Inc.) for 3 hours. In order to assay phosphorylated c-Kit, c-Kit and β-actin, immunoblot was performed using a phospho-c-kit (Tyr719) antibody (Cell Signaling Technologies, Inc.), an anti c-Kit antibody (Cell Signaling Technologies, Inc.) and an anti β-actin antibody (Sigma) as a primary antibody and an anti-rabbit IgG, HRP-linked antibody (Cell Signaling Technologies, Inc.) as a secondary antibody. After the membrane was washed, it was developed with a Super Signal (Pierce Biotechnology, Inc.).

H-526 tumor = assay: Effect on growth of H-526 tumor transplanted to nude mice; format: in vivo, Balb/c nu/nu mice
Protocol: H-526 cells were cultured in a 5% CO2 incubator (37° c.) using an RPMI1640 medium containing 10% FCS. After the culture medium was collected, H-526 cells were washed with PBS twice and were suspended in PBS at 5.0×10^7 cells/ml. This cell suspension (0.1 ml) was transplanted to the subcutaneous parts of the right flank of 6-week female Balb/c nu/nu mice (purchased from Charles River Laboratories, Inc.). After transplantation, administration of a test substance (4-(3-chloro-4-(cyclopropylaminocarbonyl)aminophenoxy)-7-methoxy-6-quinolinecarboxamide) was started at the point the tumor volume reached approximately 150 mm^3, and thus, oral administration was conducted twice daily for a period of 14 days. The test substance was suspended in a 0.5% methylcellulose solution (Wako Pure Chemical Industries Co., Ltd.) so as to give a dose of 0.1 ml/10 g body weight.
The tumor volume was measured with a caliper twice weekly during the administration period. The long and short diameters of the tumor were measured with a caliper and the tumor volume was calculated according to the equation: ½×long diameter×short diameter×short diameter. Here, the experiment was conducted in a vehicle control group of 10 animals (solvent-administered group) as well as in a test substance administered group of 5 animals.

c-Kit kinase [2] = target: T1, c-Kit kinase; assay: Effect on c-Kit kinase phosphorylation by SCF stimulation (immunoblot); format: cell-based; parameters: in the small cell lung cancer cell line H-526 expressing c-Kit kinase; host or cells: H-526 small cell lung cancer cells; conditions: H-526 cells, 1 hour with test substance, SCF 5 minutes, phospho-c-kit (Tyr719) immunoblot
Protocol: 4-(3-Chloro-4-(cyclopropylaminocarbonyl)aminophenoxy)-7-methoxy-6-quinolinecarboxamide was tested for its effect on the phosphorylation of the c-Kit kinase molecule by SCF stimulation in the small cell lung cancer cell line H-526 expressing c-Kit kinase.
H-526 cells were cultured in a 5% CO2 incubator (37° c.) using an RPMI1640 medium containing 10% FCS. After culturing, H-526 cells were washed with PBS three times and were suspended in a BSA-RPMI1640 medium at 5.0×10^5 cells/ml. Each 1 ml of this cell suspension was inoculated to the well of a 24-well plate and the suspension was cultured in a 5% CO2 incubator (37° c.) for 6 hours. After 6-hours culturing, 1 ml of BSA-RPMI1640 containing a diluted test substance (4-(3-Chloro-4-(cyclopropylaminocarbonyl)aminophenoxy)-7-methoxy-6-quinolinecarboxamide) was added to each well and culturing was carried out in a 5% CO2 incubator (37° c.) for 1 hour. Additional culturing was then carried out in a 5% CO2 incubator (37° c.) for 5 minutes after the addition of 10 μl of SCF (10 μg/ml, R&D Corporation). After 5-minutes culturing, the cells were washed with PBS and 100 μl of SDS sample loading buffer was added to the cells to prepare a cell lysate sample. After the sample was heat-treated at 94° c. for 10 minutes, it was cryopreserved at −20° c. […]

[3] = tested on: small cell lung cancer cell line H-526 expressing c-Kit kinase; assay: Effect on cell proliferation stimulated by SCF; format: cell-based; conditions: Homo sapiens, NCI-H526; H-526 cells, SCF stimulation, 7th day, Cell Counting Kit-8; read-out: IC50 (concentration required for 50% inhibition of the cell proliferation)
Protocol: After culturing, H-526 cells were washed with PBS three times and were suspended in an RPMI1640 medium containing 0.1% BSA (Sigma Corporation) (hereinafter abbreviated as “BSA-RPMI1640”) at 1.0×10^5 cells/ml. […] After color development, the absorbance of each well was determined using a MTP-32 plate reader (Colona Electric Co., Ltd.) at a measuring wavelength of 450 nm and at a reference wavelength of 660 nm. The absorbance of each well was subtracted by the absorbance of the well without addition of SCF, and then the ratio of the absorbance of the well with addition of the test substance to the ratio of the absorbance of the well without addition of the test substance was determined. This ratio was used to calculate the concentration of the test substance required for 50% inhibition of the cell proliferation (IC50).

T1 sequence (P10721 26-976): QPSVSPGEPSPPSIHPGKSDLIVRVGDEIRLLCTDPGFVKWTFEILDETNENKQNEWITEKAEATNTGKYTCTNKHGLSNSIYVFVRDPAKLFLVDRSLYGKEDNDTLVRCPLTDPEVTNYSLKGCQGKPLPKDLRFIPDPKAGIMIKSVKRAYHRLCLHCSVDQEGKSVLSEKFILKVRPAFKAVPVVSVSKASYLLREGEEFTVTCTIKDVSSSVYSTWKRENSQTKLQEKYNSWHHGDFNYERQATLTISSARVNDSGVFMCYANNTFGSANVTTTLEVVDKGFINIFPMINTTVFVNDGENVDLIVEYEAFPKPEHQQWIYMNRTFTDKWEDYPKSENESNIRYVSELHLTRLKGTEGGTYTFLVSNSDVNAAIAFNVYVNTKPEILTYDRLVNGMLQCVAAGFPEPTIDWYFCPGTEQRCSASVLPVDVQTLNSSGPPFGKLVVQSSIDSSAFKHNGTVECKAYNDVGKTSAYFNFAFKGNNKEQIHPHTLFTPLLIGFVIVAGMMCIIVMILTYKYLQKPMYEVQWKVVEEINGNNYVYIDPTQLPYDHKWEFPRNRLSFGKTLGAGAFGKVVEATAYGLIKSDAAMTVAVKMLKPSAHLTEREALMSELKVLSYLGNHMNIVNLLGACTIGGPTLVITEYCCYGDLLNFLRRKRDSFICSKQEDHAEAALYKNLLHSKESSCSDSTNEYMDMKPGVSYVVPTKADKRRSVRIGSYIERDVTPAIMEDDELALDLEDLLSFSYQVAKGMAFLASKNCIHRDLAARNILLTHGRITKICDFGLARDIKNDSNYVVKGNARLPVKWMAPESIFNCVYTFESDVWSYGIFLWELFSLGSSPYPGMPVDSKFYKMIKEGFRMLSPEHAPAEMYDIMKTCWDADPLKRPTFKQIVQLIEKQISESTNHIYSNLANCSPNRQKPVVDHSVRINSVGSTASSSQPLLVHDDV

phosphorylated c-Kit in tumor tissue (c-Kit kinase [1]; 160 mg/kg) | c-Kit and β-actin in tumor tissue (c-Kit kinase [1]; 30 or 100 mg/kg) | phosphorylated c-Kit in tumor tissue (c-Kit kinase [1]; 30 or 100 mg/kg) | pIC50 [3] | SMILES | anti-tumor effect (H-526 tumor; H-526 tumor in nude mice, 160 mg/kg) | growth of the nude mouse transplanted H-526 tumor (tumor volume) (H-526 tumor; oral, twice daily for 14 days) | c-Kit kinase phosphorylation in the presence of SCF (c-Kit kinase [2])
partially inhibited phosphorylation | – | – | – | Cc1ccc(NC(=O)c2ccc(CN3CCN(C)CC3)cc2)cc1Nc1nccc(-c2cccnc2)n1 [STI571, reference compound] | showed little anti-tumor effect | – | –
– | remained unchanged | completely inhibited phosphorylation | 8.02 | COc1cc2nccc(Oc3ccc(NC(=O)NC4CC4)c(Cl)c3)c2cc1C(N)=O [4-(3-chloro-4-(cyclopropylaminocarbonyl)aminophenoxy)-7-methoxy-6-quinolinecarboxamide] | – | suppressed the growth of the nude mouse transplanted H-526 tumor in a dose-dependent manner | suppressed the c-Kit kinase phosphorylation that would take place in the presence of SCF in a concentration-dependent manner
